# From patent US11407738B2 (Achillion Pharmaceuticals, Inc., priority 2015, dated 2022)
# Target: Human Factor D (Homo sapiens (Human), UniProt P00746)
# Test: Human Factor D assay
# Format: biochemical
# Details: Table 4; Factor D inhibition, substrate Z-L-Lys-SBzl
# Procedure, shortened: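 Serum-purified human factor D (80 nM final) preincubated 5 min at room temperature with test compound in 50 mM Tris, 1M NaCl, pH 7.5. Z-L-Lys-SBzl substrate and DTNB then added, each at 100 μM final. IC50 from nonlinear regression of reaction rate against compound concentration.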
# Human Factor D, sequence (P00746 26-253): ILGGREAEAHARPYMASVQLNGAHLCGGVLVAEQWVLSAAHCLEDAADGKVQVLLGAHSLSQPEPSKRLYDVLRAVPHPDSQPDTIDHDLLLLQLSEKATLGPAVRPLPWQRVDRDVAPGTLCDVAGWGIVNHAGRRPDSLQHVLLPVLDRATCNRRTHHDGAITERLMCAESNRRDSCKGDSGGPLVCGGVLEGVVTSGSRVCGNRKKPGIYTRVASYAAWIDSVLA
row,SMILES,IC50
1,"CC(=O)c1nn(CC(=O)N2C[C@H](F)C[C@H]2CC(=O)NO)c2ccc(-c3cnc(C)nc3)cc12 [Compound 592, 2-((2R,4R)-1-(2-(3-Acetyl-5-(2-methylpyrimidin-5-yl)-1H-indazol-1-yl)acetyl)-4-fluoropyrrolidin-2-yl)-N-hydroxyacetamide]",> 10 µM
2,"Cc1cccc(NC(=O)[C@@H]2CCC(F)CCN2C(=O)Cn2cc(C(N)=O)c3cc(-c4cnc5c(c4)CCC5)ccc32)n1 (stereo partly drawn) [Compound 593, 5-(6,7-Dihydro-5H-cyclopenta[b]pyridin-3-yl)-1-(2-((2S)-5-fluoro-2-((6-methylpyridin-2-yl)carbamoyl)azepan-1-yl)-2-oxoethyl)-1H-indole-3-carboxamide]",> 10 µM
3,"Cc1cccc(NC(=O)[C@@H]2CCC(F)CCN2C(=O)Cn2cc(C(N)=O)c3cc(-c4ccc5ccccc5c4)ccc32)n1 (stereo partly drawn) [Compound 594, 1-(2-((2S)-5-Fluoro-2-((6-methylpyridin-2-yl)carbamoyl)azepan-1-yl)-2-oxoethyl)-5-(naphthaalen-2-yl)-1H-indole-3-carboxamide]",> 10 µM
4,"Cc1cccc(NC(=O)[C@@H]2CCC(F)CCN2C(=O)Cn2cc(C(N)=O)c3cc(-c4ccc(N)nc4)ccc32)n1 (stereo partly drawn) [Compound 595, 5-(6-Aminopyridin-3-yl)-1-(2-((2S)-5-fluoro-2-((6-methylpyridin-2-yl)carbamoyl)azepan-1-yl)-2-oxoethyl)-1H-indole-3-carboxamide]",> 10 µM
5,"COc1ccc(-c2ccc3c(c2)c(C(N)=O)cn3CC(=O)N2CCC(F)CC[C@H]2C(=O)Nc2cccc(C)n2)cn1 (stereo partly drawn) [Compound 596, 1-(2-((2S)-5-Fluoro-2-((6-methylpyridin-2-yl)carbamoyl)azepan-1-yl)-2-oxoethyl)-5-(6-methoxypyridin-3-yl)-1H-indole-3-carboxamide]",> 10 µM
6,"CC[C@H](C(=O)Nc1cccc(Br)n1)N(C)C(=O)Cn1nc(C(C)=O)c2cc(-c3cnc(C)nc3)ccc21 [Compound 597, (R)-2-(2-(3-acetyl-5-(2-methylpyrimidin-5-yl)-1H-indazol-1-yl)-N-methylacetamido)-N-(6-bromopyridin-2-yl)butanamide]",> 10 µM
7,"CC[C@@H](C(=O)Nc1cccc(Br)n1)N(C)C(=O)Cn1nc(C(C)=O)c2cc(-c3cnc(C)nc3)ccc21 [Compound 598, (S)-2-(2-(3-Acetyl-5-(2-methylpyrimidin-5-yl)-1H-indazol-1-yl)-N-methylacetamido)-N-(6-bromopyridin-2-yl)butanamide]",1 to 10 µM
8,CC[C@@H](NC(=O)Cn1nc(C(C)=O)c2cc(-c3cnc(C)nc3)ccc21)C(=O)Nc1cccc(Br)n1 [Compound 599],> 10 µM
9,CC[C@H](NC(=O)Cn1nc(C(C)=O)c2cc(-c3cnc(C)nc3)ccc21)C(=O)Nc1cccc(Br)n1 [Compound 600],< 1 µM
10,CC(=O)c1nn(CC(=O)N2C[C@H](F)C[C@H]2C(=O)NCC#N)c2ccc(-c3cnc(C)nc3)cc12 [Compound 601],< 1 µM
11,"Cc1cccc(NC(=O)[C@@H]2CCC(F)CCN2C(=O)Cn2cc(C(N)=O)c3cc(-c4ccc5cccnc5c4)ccc32)n1 (stereo partly drawn) [Compound 602, 1-(2-((2S)-5-Fluoro-2-((6-methylpyridin-2-yl)carbamoyl)azepan-1-yl)-2-oxoethyl)-5-(quinolin-7-yl)-1H-indole-3-carboxamide]",> 10 µM
12,"CC(=O)c1nn(CC(=O)N2C[C@H](F)C[C@H]2CS(=O)(=O)c2cccc(Br)n2)c2ccc(-c3cnc(C)nc3)cc12 [Compound 603, 2-(3-Acetyl-5-(2-methylpyrimidin-5-yl)-1H-indazol-1-yl)-1-((2S,4R)-2-(((6-bromopyridin-2-yl)sulfonyl)methyl)-4-fluoropyrrolidin-1-yl)ethan-1-one]",> 10 µM
13,"CC(=O)c1nn(CC(=O)N2C[C@H](F)C[C@H]2C[S+]([O-])c2cccc(Br)n2)c2ccc(-c3cnc(C)nc3)cc12 (stereo partly drawn) [Compound 604, 2-(3-Acetyl-5-(2-methylpyrimidin-5-yl)-1H-indazol-1-yl)-1-((2S,4R)-2-(((6-bromopyridin-2-yl)sulfinyl)methyl)-4-fluoropyrrolidin-1-yl)ethan-1-one]",1 to 10 µM
14,"CC(=O)c1nn(CC(=O)N2C[C@H]3C[C@H]3[C@H]2C(=O)Nc2ccn(CC(F)(F)F)n2)c2ccc(-c3cnc(C)nc3)cc12 [Compound 606, (1R,2S,5S)-3-(2-(3-acetyl-5-(2-methylpyrimidin-5-yl)-1H-indazol-1-yl)acetyl)-N-(1-(2,2,2-trifluoroethyl)-1H-pyrazol-3-yl)-3-azabicyclo[3.1.0]hex-ane-2-carboxamide]",< 1 µM
15,"Cc1cccc(C[C@@H](O)[C@H]2C[C@@H](F)CN2C(=O)Cn2cc(C(N)=O)c3cc(-c4cnc5cc(C)nn5c4)ccc32)n1 [Compound 611, 1-(2-((2R,4R)-4-Fluoro-2-((R)-1-hydroxy-2-(6-methylpyridin-2-yl)ethyl)pyrrolidin-1-yl)-2-oxoethyl)-5-(2-methylpyrazolo [1,5-a]pyrimidin-6-yl)-1H-indole-3-carboxamide]",> 10 µM
16,"Cc1cccc(NC(=O)[C@@H]2CC=CCN2C(=O)Cn2cc(C(N)=O)c3cc(-c4cnc5cc(C)nn5c4)ccc32)n1 [Compound 612, (S)-5-(2-Methylpyrazolo[1,5-a]pyrimidin-6-yl)-1-(2-(2-((6-methylpyridin-2-yl)carbamoyl)-3,6-dihydropyridin-1 (2H)-yl)-2-oxoethyl)-1H-indole-3-carboxamide]",> 10 µM
17,"Cc1cccc(NC(=O)[C@@H]2CCC(F)CCN2C(=O)Cn2cc(C(N)=O)c3cc(-c4cnc5cc(C)nn5c4)ccc32)n1 (stereo partly drawn) [Compound 614, 1-(2-((2S)-5-Fluoro-2-((6-methylpyridin-2-yl)carbamoyl)azepan-1-yl)-2-oxoethyl)-5-(2-methylpyrazolo[1,5-a]pyrimidin-6-yl)-1H-indole-3-carboxamide]",> 10 µM
18,"Cc1cccc(NC(=O)[C@@H]2CCC(F)CCN2C(=O)Cn2cc(C(N)=O)c3cc(-c4cnc5ncccn45)ccc32)n1 (stereo partly drawn) [Compound 615, 1-(2-((2S)-5-Fluoro-2-((6-methylpyridin-2-yl)carbamoyl)azepan-1-yl)-2-oxoethyl)-5-(imidazo[1,2-a]pyrimidin-3-yl)-1H-indole-3-carboxamide]",> 10 µM
19,"Cc1cccc(NC(=O)[C@@H]2CCC(F)CCN2C(=O)Cn2cc(C(N)=O)c3cc(-c4cnc5n4CCCC5)ccc32)n1 (stereo partly drawn) [Compound 616, 1-(2-((2S)-5-Fluoro-2-((6-methylpyridin-2-yl)carbamoyl)azepan-1-yl)-2-oxoethyl)-5-(5,6,7,8-tetrahydroimidazo[1,2-a]pyridin-3-yl)-1H-indole-3-carboxamide]",> 10 µM
20,"Cc1cccc(NC(=O)[C@@H]2CCC(F)CCN2C(=O)Cn2cc(C(N)=O)c3cc(-c4cnn5c4CCC5)ccc32)n1 (stereo partly drawn) [Compound 617, 5-(5,6-Dihydro-4H-pyrrolo[1,2-b]pyrazol-3-yl)-1-(2-((2S)-5-fluoro-2-((6-methylpyridin-2-yl)carbamoyl)azepan-1-yl)-2-oxoethyl)-1H-indole-3-carboxamide]",> 10 µM
21,"CC(=O)c1nn(CC(=O)N2C[C@H](F)C[C@H]2C(=O)Nc2cccc(Br)n2)c2ccc(N3CCn4c(nnc4C(F)(F)F)C3)cc12 [Compound 618, (2S,4R)-1-(2-(3-acetyl-5-(3-(trifluoromethyl)-5,6-dihydro-[1,2,4]triazolo[4,3-a]pyrazin-7(8H)-yl)-1H-indazol-1-yl)acetyl)-N-(6-bromopyridin-2-yl)-4-fluoropyrrolidine-2-carboxamide]",< 1 µM
